From PubChem BioAssay AID2801 (Sanford-Burnham Center for Chemical Genomics, 2010)

System: TNFa-induced NF-kB reporter cells, inhibition
Assay: TNFa-triggered NF-kB activation inhibitors, SAR follow-up, cell-based, set 3 (AID 2801)

## CCCCn1c(SCC(=O)Nc2nnc(CC)s2)nc2c1c(=O)n(C)c(=O)n2C
  IC50: 13 µM
